# Assay results: patent US7109243B2 (IRM LLC, priority 2003, dated 2006)
# Experiments:
# [1] = target: T1, Cathepsin K (Homo sapiens, UniProt P43235); assay: Cathepsin K inhibition assay (fluorogenic peptide substrate); selectivity ratio vs cathepsin S; assay type: biochemical; conditions: ratio of cathepsin K inhibition constant to cathepsin S inhibition constant; Table II
# T1 sequence (P43235 115-329): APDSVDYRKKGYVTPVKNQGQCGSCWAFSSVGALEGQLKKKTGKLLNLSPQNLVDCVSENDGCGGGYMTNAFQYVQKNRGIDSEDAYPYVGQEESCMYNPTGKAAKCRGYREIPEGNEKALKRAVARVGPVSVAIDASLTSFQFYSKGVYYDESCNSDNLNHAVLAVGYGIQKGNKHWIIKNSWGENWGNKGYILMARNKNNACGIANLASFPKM
# In short: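 Fluorogenic kinetic assay, started with acetyl-Lys-His-Pro-Lys-aminocarbamoylcoumarin at 40 μM final, hydrolysis followed at ex 380/em 450 nm. Apparent inhibition constants from progress curves, converted to competitive inhibition constants. Selectivity expressed as isozyme inhibition constant divided by cathepsin S inhibition constant.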
# [2] = target: Cathepsin S (Homo sapiens, UniProt P25774); assay: Cathepsin S inhibition assay (fluorogenic peptide substrate); assay type: biochemical; conditions: Table II, compounds of Formula I; read-out: Ki Cat. S
# Chain of Cathepsin S (P25774 115-331, species assumed): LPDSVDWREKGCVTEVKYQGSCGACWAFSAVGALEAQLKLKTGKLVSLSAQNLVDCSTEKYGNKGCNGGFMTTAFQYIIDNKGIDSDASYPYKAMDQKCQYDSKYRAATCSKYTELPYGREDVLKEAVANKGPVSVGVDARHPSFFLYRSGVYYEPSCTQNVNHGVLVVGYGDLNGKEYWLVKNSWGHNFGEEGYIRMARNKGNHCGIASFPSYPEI
# In short: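 Ki values come from nonlinear fitting of inhibited hydrolysis rates, taking free and total inhibitor concentrations as equal. Rates measured as rising fluorescence at 380/450 nm after reaction start with 50 μM final acetyl-HPVK-aminocarbamoylcoumarin.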
Selectivity for Cat. S over Cat. K [1],Ki [2],SMILES
"+++ (+++, >1000)",< 100 nM,"COc1ccc(NCCNC(=O)[C@H](CCCC2CCCCC2)NC(=O)c2cccc(C)c2)cc1 [Compound 203, (S)-N-{4-Cyclohexyl-1-[2-(4-methoxy-phenylamino)-ethylcarbamoyl]-butyl}-3-methyl-benzamide]"
"+ (+, >10)",< 100 nM,"COc1ccc(NCCNC(=O)[C@H](CC2CCCCC2)NC(=O)c2ccc(C#N)cc2)cc1 [Compound 121, (S)-4-Cyano-N-{2-cyclohexyl-1-[2-(4-methoxy-phenylamino)-ethylcarbamoyl]-ethyl}-benzamide]"
"++ (++, >100)",< 100 nM,"O=C(Cc1cc(F)ccc1F)N[C@@H](CC1CCCCC1)C(=O)NCCNc1ccc(F)cc1 [Compound 95, 3-Cyclohexyl-2-(S)-[2-(2,5-difluorophenyl)-acetylamino]-N-[2-(4-fluoro-phenylamino)-ethyl]-propionamide]"
"++ (++, >100)",< 10000 nM,"COc1ccc(NCCNC(=O)[C@H](CC2CCCCC2)NC(=O)[C@H](O)c2ccccc2)cc1 [Compound 160, 3-Cyclohexyl-2-(S)-(2-(R)-hydroxy-2-phenyl-acetylamino)-N-[2-(4-methoxy-phenylamino)-ethyl]-propionamide]"
"++ (++, >100)",< 100 nM,"CC(C(=O)N[C@@H](CC1CCCCC1)C(=O)NCCNc1ccc(F)cc1)c1ccc(F)cc1 (stereo partly drawn) [Compound 310, N-{2-cyclohexyl-1-(S)-[2-(4-fluoro-phenylamino)-ethylcarbamoyl]-ethyl}-2-(4-fluoro-phenyl)-propionamide]"
"+++ (+++, >1000)",< 100 nM,"COc1ccc(NCCNC(=O)[C@H](CC2CCCCC2)NC(=O)c2cc(Cl)ccc2F)cc1 [Compound 156, (S)-5-Chloro-N-{2-cyclohexyl-1-[2-(4-methoxy-phenylamino)-ethylcarbamoyl]-ethyl}-2-fluoro-benzamide]"
"+ (+, >10)",< 1000 nM,Cc1nc(-c2ccc(C(=O)N[C@@H](CC3CCCCC3)C(=O)NCCNc3ccc(OC(F)(F)F)cc3)cc2)no1 [Compound 28]
"+++ (+++, >1000)",< 100 nM,"COc1ccc(NCCNC(=O)[C@H](Cc2ccc(-c3ccc(C#N)cc3)cc2)NC(=O)c2cccc(C)c2)cc1 [Compound 276, (S)-N-{2-(4′-Cyano-biphenyl-4-yl)-1-[2-(4-methoxy-phenylamino)-ethylcarbamoyl]-ethyl}-3-methyl-benzamide]"
"+++ (+++, >1000)",< 100 nM,"O=C(Cc1ccc(F)cc1F)N[C@@H](CC1CCCCC1)C(=O)NCCNc1ccc(F)cc1 [Compound 100, 3-Cyclohexyl-2-(S)-[2-(2,4-difluoro-phenyl)-acetylamino]-N-[2-(4-fluoro-phenylamino)-ethyl]-propionamide]"
"++ (++, >100)",< 100 nM,"O=C(N[C@@H](CC1CCCCC1)C(=O)NCCNc1ccc(F)cc1)C(F)c1ccccc1 (mixture of isomers) [Compound 86, 3-Cyclohexyl-2-(S)-(2-(R,S)-fluoro-2-phenyl-acetylamino)-N-[2-(4-fluoro-phenylamino)-ethyl]-propionamide]"
"+ (+, >10)",< 1000 nM,"COc1ccc(NCCNC(=O)[C@H](Cc2ccccc2)NC(=O)NCCc2ccccc2)cc1 [Compound 90, (S)-N-[2-(4-Methoxy-phenylamino)-ethyl]-2-(3-phenethyl-ureido)-3-phenyl-propionamide]"
"+++ (+++, >1000)",< 100 nM,"COc1ccc(NCCNC(=O)[C@H](CC2CCCCC2)NC(=O)c2cc(Cl)cc(Cl)c2)cc1 [Compound 179, (S)-3,5-Dichloro-N-{2-cyclohexyl-1-[2-(4-methoxy-phenylamino)-ethylcarbamoyl]-ethyl}-benzamide]"
"++ (++, >100)",< 100 nM,"COc1ccc(NCCNC(=O)[C@H](CC2CCCCC2)NC(=O)c2cc(C)c(OC)c(C)c2)cc1 [Compound 111, (S)-N-{2-Cyclohexyl-1-[2-(4-methoxy-phenylamino)-ethylcarbamoyl]-ethyl}-4-methoxy-3,5-dimethyl-benzamide]"
"+++ (+++, >1000)",< 100 nM,"COc1ccc(NCCNC(=O)[C@H](CC2CCCCC2)NC(=O)c2cnn(-c3ccccc3)c2C(F)(F)F)cc1 [Compound 115, (S)-1-Phenyl-5-trifluoromethyl-1H-pyrazole-4-carboxylic acid {2-cyclohexyl-1-[2-(4-methoxy-phenylamino)-ethylcarbamoyl]-ethyl}-amide]"
"+++ (+++, >1000)",< 100 nM,"O=C(N[C@@H](CC1CCCCC1)C(=O)NCCNc1ccc(OC(F)(F)F)cc1)c1ccc(-c2ccc(C(F)(F)F)cc2)o1 [Compound 213, (S)-5-(4-Trifluoromethyl-phenyl)-furan-2-carboxylic acid {2-cyclohexyl-1-[2-(4-trifluoromethoxy-phenylamino)-ethylcarbamoyl]-ethyl}-amide]"
"++ (++, >100)",< 100 nM,"COc1ccc(NCCNC(=O)[C@H](CC2CCCCC2)NC(=O)c2cccc(C(F)(F)F)c2)cc1 [Compound 106, (S)-N-{2-Cyclohexyl-1-[2-(4-methoxy-phenylamino)-ethylcarbamoyl]-ethyl}-3-trifluoromethyl-benzamide]"
"+++ (+++, >1000)",< 100 nM,"O=C(Cc1ccccc1F)N[C@@H](CC1CCCCC1)C(=O)NCCNc1ccc(F)cc1 [Compound 306, 3-Cyclohexyl-2-(S)-[2-(2-fluoro-phenyl)-acetylamino]-N-[2-(4-fluoro-phenylamino)-ethyl]-propionamide]"
"+++ (+++, >1000)",< 100 nM,Cc1nc(-c2ccc(C(=O)N[C@@H](CC3CCCCC3)C(=O)NCCNc3ccc(OC(F)(F)F)cc3)cc2)no1 [Compound 27]
"++ (++, >100)",< 1000 nM,"COc1ccc(NCCNC(=O)[C@H](Cc2ccc(-c3cccc(N)c3)cc2)NC(=O)c2cccc(C)c2)cc1 [Compound 280, (S)-N-{2-(3′-Amino-biphenyl-4-yl)-1-[2-(4-methoxy-phenylamino)-ethylcarbamoyl]-ethyl}-3-methyl-benzamide]"
"++ (++, >100)",< 1000 nM,"COc1ccc(NCCNC(=O)[C@H](Cc2ccc(Oc3ccc(Cl)c(Cl)c3)cc2)NC(=O)c2cccc(C)c2)cc1 [Compound 98, (S)-N-{2-[4-(3,4-Dichloro-phenoxy)-phenyl]-1-[2-(4-methoxy-phenylamino)-ethylcarbamoyl]-ethyl}-3-methyl-benzamide]"
"++ (++, >100)",< 1000 nM,"COc1ccc(NCCNC(=O)[C@H](COCc2ccccc2)NC(=O)c2cccc(C)c2)cc1 [Compound 254, (S)-N-{2-Benzyloxy-1-[2-(4-methoxy-phenylamino)-ethylcarbamoyl]-ethyl}-3-methyl-benzamide]"
"+++ (+++, >1000)",< 100 nM,"COc1ccc(NCCNC(=O)[C@H](Cc2ccccc2C(F)(F)F)NC(=O)c2cccc(C)c2)cc1 [Compound 239, (S)-N-[1-[2-(4-Methoxy-phenylamino)-ethylcarbamoyl]-2-(2-trifluoromethyl-phenyl)-ethyl]-3-methyl-benzamide]"
"++ (++, >100)",< 1000 nM,"COc1ccc(NCCNC(=O)[C@H](Cc2ccc(Oc3cccc(C)c3C)cc2)NC(=O)c2cccc(C)c2)cc1 [Compound 7, (S)-N-{2-[4-(2,3-Dimethyl-phenoxy)-phenyl]-1-[2-(4-methoxy-phenylamino)-ethylcarbamoyl]-ethyl}-3-methyl-benzamide]"
"+++ (+++, >1000)",< 100 nM,"COc1ccc(NCCNC(=O)[C@H](CC2CCCCC2)NC(=O)c2nc(C)oc2C(F)(F)F)cc1 [Compound 190, (S)-2-Methyl-5-trifluoromethyl-oxazole-4-carboxylic acid {2-cyclohexyl-1-[2-(4-methoxy-phenylamino)-ethylcarbamoyl]-ethyl}-amide]"
"++ (++, >100)",< 100 nM,"O=C(Cc1ccc(OC(F)(F)F)cc1)N[C@@H](CC1CCCCC1)C(=O)NCCNc1ccc(F)cc1 [Compound 87, 3-Cyclohexyl-N-(S)-[2-(4-fluoro-phenylamino)-ethyl]-2-[2-(4-trifluoromethoxy-phenyl)-acetylamino]-propionamide]"
"+ (+, >10)",< 100 nM,"O=C(N[C@@H](CC1CCCCC1)C(=O)NCCNc1ccc(OC(F)(F)F)cc1)c1ccc(-c2cccc(F)c2)o1 [Compound 31, 5-(3-Fluoro-phenyl)-furan-2-carboxylic acid (S)-{2-cyclohexyl-1-[2-(4-trifluoromethoxy-phenylamino)-ethylcarbamoyl]-ethyl}-amide]"
"+++ (+++, >1000)",< 100 nM,"COc1ccc(NCCNC(=O)[C@H](Cc2cccc3ccccc23)NC(=O)c2cccc(C)c2)cc1 [Compound 258, (S)-N-{1-[2-(4-Methoxy-phenylamino)-ethylcarbamoyl]-2-naphthalen-1-yl-ethyl}-3-methyl-benzamide]"
